# Experimental data taken from US20200291391A1, “CROSS-LINKED EPITOPES AND METHODS OF USE THEREOF” (Indi Molecular, Inc., priority 2019, published 2020).
# “Also recorded” adds a separate entry of the source. Where a SMILES comes first, the peptide text is derived from it. Bridges are numbered along the chain shown (N, C = ends). Triazole bridges read from a SMILES are 1,4-linked. Where no end group is shown, it is not given here. [ ]: non-standard residue; d: D form. Lys(N3) = [N-]=[N+]=NCCCC[C@H](N)C(=O)O; Pra = C#CC[C@H](N)C(=O)O
# How the values were obtained:
# epitope B2 = biological target: T1, epitope B2 (Homo sapiens, UniProt P01732, L47X); experiment: Epitope bound by ligand; format: binding
# T1 construct: host or cells: synthetic peptide (per the listing)
# Description: Epitope B2 ligand tfpkk (SEQ ID NO:21) and the three hit ligands selected against CD8 epitopes A2, B2, H, and J were tested for binding to CD8+ and CD8− cells by flow cytometry.
# CD8+SupT1 cells = experiment: Flow cytometry binding to CD8+ cells; format: cell-based; details: for selective binding to CD8+ cells in flow cytometry: SupT1 (CD8+) vs Jurkat (CD8-) cells, FIG. 11; for binding to CD8+SupT1 cells by flow cytometry: with the 1kPEG linker
# Description: (§1) Three hits were left after this screening (Table 3). These hits were assessed in solid phase ELISA and in flow cytometry experiments.
# (§2) Binding of krsah (SEQ ID NO:27) was detected on both CD8+SupT1 cells and CD8−Jurkat cells. The mean fluorescence intensity ratio to each of the ligands tfpkk (SEQ ID NO:21), krsah (SEQ ID NO:27), and snprk (SEQ ID NO:28) was determined (Table 4). The mean fluorescence intensity ratio of different amounts of the ligand tfpkk (SEQ ID NO:21) was determined (Table 5).
# (§3) Binding of Biotin-1kPEG-tfpkk (SEQ ID NO:21) to CD8+SupT1 cells or CD8−Jurkat was performed at room temperature (RT) or 4° C.
# (§4) Concentration of biotin-1kPEG-tfpkk (SEQ ID NO:21) and -nfyrr (SEQ ID NO:32) was titrated on SupT1 and Jurkat cells. The biotin-1kPEG-ligands were incubated with CD8+SupT1 cells and CD8−Jurkat cells at a concentrations of […].
# CD8−Jurkat cells = experiment: Flow cytometry binding to CD8- cells; format: cell-based; details: with the 1kPEG linker
# Description: as §1, §2, §3, §4
# [1] = biological target: T2, CD8 epitopes A, B, C, D, and E (Homo sapiens, UniProt P01732, M123X); experiment: Bead-coupled alkyne peptide screened with azide- and biotin-containing epitopes, alkaline phosphatase-streptavidin development; format: binding; details: D, and E tested
# T2 construct: host or cells: synthetic peptide (per the listing)
# Description: The epitope E ligand used in the biligand is tfpkk (SEQ ID NO:21). It was determined that tfpkk (SEQ ID NO:21) binds to epitope E by screening an alkyne-containing tfpkk peptide (SEQ ID NO:21) coupled to a bead (FIG. 8) with azide- and biotin-containing epitopes A, B, C, D, and E (FIG. 9). The epitopes used in the screen were: Epitope A (a.a. 1-10): Biotin-PEG3-[Az4]-SQFRVSPLDR (SEQ ID NO:22); Epitope B (a.a. 24-32): Biotin-PEG3-[Az4]-VLLSNPTSG (SEQ ID NO:23); Epitope C (a.a. 58-77): Biotin-PEG3-KAAEGLDTQ-[Az4]-FSGKRLGDTF (SEQ ID NO:24); Epitope D (a.a. 68-83): Biotin-PEG3-FSGKRL-[Az4]-DTFVLTLSD (SEQ ID NO:25); Epitope E (a.a. 95-110): Biotin-PEG3-SALSNSI-[Az4]-YFSHFVPV (SEQ ID NO:26).
# This is in agreement with docking calculations of binding affinities of the epitopes to tfpkk (SEQ ID NO:21) and a control peptide (krsah; SEQ ID NO:27) (Table 2).
epitope bound (epitope B2),color development of beads with alkaline phosphatase-linked streptavidin [1],Compound,selective binding to CD8+ cells in flow cytometry (CD8+SupT1 cells),binding to CD8+SupT1 cells by flow cytometry (CD8+SupT1 cells),binding to CD8−Jurkat cells by flow cytometry (CD8−Jurkat cells)
bind to epitope B2,–,C[C@H](O)[C@H]1NC(=O)[C@@H](Cc2ccc(O)cc2)NC(=O)[C@@H](Cc2c[nH]cn2)NC(=O)[C@@H](CCCCN)NC(=O)[C@@H](N)Cc2cn(nn2)CCCC[C@@H](C(N)=O)NC(=O)[C@@H](CC(N)=O)NC1=O [khytn] (H-[Pra][dK][dH][dY][dT][dN][Lys(N3)]-NH2; triazole 1-7; N-terminus assumed),–,–,–
–,–,herlk: CD8 ligand hit of four epitope cocktail screening ([dH][dE][dR][dL][dK]),weakly selective binding to CD8+ cells,–,–
–,–,krsah: CD8 ligand hit; control peptide in docking ([dK][dR][dS][dA][dH]),–,can be detected,detected; also recorded: also observed
bind to epitope B2,color only when epitope E was used,tfpkk: CD8 ligand peptide; epitope E ligand used in the biligand ([dT][dF][dP][dK][dK]),–,observed,little binding
–,–,nsprw: CD8 ligand hit of four epitope cocktail screening ([dN][dS][dP][dR][dW]),weak (and weakly selective) binding to CD8+ cells,–,–
